Tests used:
SIRT3 [1] = target: T1, SIRT3 (Homo sapiens, UniProt Q9NTG7); assay: surface plasmon resonance; assay type: binding; design: SIRT3 protein used for SPR; PDB 4JT8 was only the docking model
T1 sequence (Q9NTG7 102-399): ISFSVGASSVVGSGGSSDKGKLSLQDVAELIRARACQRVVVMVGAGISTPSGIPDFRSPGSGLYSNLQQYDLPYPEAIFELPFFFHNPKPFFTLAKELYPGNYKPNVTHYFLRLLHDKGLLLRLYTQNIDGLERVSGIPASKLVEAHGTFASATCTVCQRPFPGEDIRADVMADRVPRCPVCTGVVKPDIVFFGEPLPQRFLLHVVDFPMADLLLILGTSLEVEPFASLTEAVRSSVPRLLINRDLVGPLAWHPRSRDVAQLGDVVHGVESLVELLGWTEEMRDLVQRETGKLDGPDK

SIRT3 [2] = target: T1, SIRT3; assay: DARTS (pronase digestion, blot); assay type: biochemical; design: detected by blot; details: protein lysate

- Kd (SIRT3 [1]): 4.98 µM
SMILES: O=C(/C=C/c1ccc(O)c(O)c1)c1ccc(O)c(O)c1O [okanin]
- DARTS protection (SIRT3 [2]): okanin treatment significantly enhanced SIRT3 resistance to pronase digestion in protein lysates
